Data published in ChEMBL document CHEMBL3714722, “Aryl, Pyrimidyl Compounds, Pharmaceutical Compositions Comprising them, Their Use as Antimicrobial Agents” (2008).

Key:
Thymidylate kinase = biological target: T1, Thymidylate kinase (Mycobacterium tuberculosis, UniProt P9WKE1); assay: Inhibition of Mycobacterium tuberculosis TMPK using dTMP substrate and NADH by pyruvate kinase/lactate dehydrogenase coupling system based spectrophotometric assay
T1 sequence (P9WKE1 whole entry): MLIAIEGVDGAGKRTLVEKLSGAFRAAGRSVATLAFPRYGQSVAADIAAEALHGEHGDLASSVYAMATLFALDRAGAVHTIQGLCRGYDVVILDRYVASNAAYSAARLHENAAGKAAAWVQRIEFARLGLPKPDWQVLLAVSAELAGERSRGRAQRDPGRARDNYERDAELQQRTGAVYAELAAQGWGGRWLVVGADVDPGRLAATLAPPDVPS

Vero [1] = assay: Growth inhibition of African green monkey Vero cells up to 250 ug/ml; type: cell-based; settings: chlorocebus sabaeus
Vero [2] = assay: Cytotoxic activity against African green monkey Vero cells up to 250 ug/ml; type: cell-based; settings: chlorocebus sabaeus

SMILES	Ki (Thymidylate kinase)	Activity (Vero [1])	Activity (Vero [2])
COC(=O)CCCC#Cc1ccc(Cn2cc(C)c(=O)[nH]c2=O)cc1	Not Active		
Cc1cn(Cc2ccc(CCCCCC(=O)O)cc2)c(=O)[nH]c1=O		Non-toxic	Non-toxic
